This is an account of results in a melting point compilation (Tetko et al.; mined from patent text by program, amines drawn as free bases though some values may be those of a salt).

Some results are limits rather than exact numbers.

In general, melting point refers to the temperature of the solid-liquid transition.

Take `N#CC1=C(C2CCCCC2)Nc2n[nH]cc2C1c1cccc(C#N)c1Br` (configuration not stated): the melting point was 193 °C. With `c1ccc(COc2cccc(OCc3ccccc3)n2)cc1`, the melting point worked out at 74 °C. In turn, `COC(=O)[C@H](CCC(=O)NCCc1ccc(O)c(OCc2ccccc2)c1)NC(=O)OCc1ccccc1` showed a melting point of 110 to 115 °C. With `CC(CS)C(=O)N1CC2CCCCC2C1C(=O)O` (configuration not stated) the figure was 119 to 129 °C; with `CC(=O)OC1CCc2c(C3=C(c4cn(C)c5ccccc45)C(=O)OC3=O)c3ccccc3n2C1` (configuration not stated), 272 to 275 °C. Next, `COc1cccc(-c2nc(-c3ccccc3C)n(C(=O)Nc3ccccc3)n2)c1`: 123 to 125 °C.

The compound `N#Cc1cnn2c(C(F)(F)F)cc(-c3ccc(F)c(Cl)c3)nc12` showed a melting point of 190 °C. With `CC(C)n1nc(-c2cc(I)c(N)nc2-c2ccccc2)ccc1=O` the figure was 196 to 197 °C; with `O=C(O)Cc1ccc(S(=O)(=O)c2ccc(Cl)cc2)cc1`, 153 to 157 °C; with `COc1ccc2cc(CC(=O)N3CC=C(c4cccc(C(F)(F)F)c4)CC3)ccc2c1`, 102 to 105 °C. With `COc1ccc(Cl)cc1C1OC(=O)N(C(C)=O)C1=O` (configuration not stated) the figure was 161 to 164 °C.

The compound `CC12CCC3c4ccc(O)cc4CC(Sc4ccc(O)cc4)C3C1CCC2O` (configuration not stated) came in with a melting point of 140 to 145 °C. Next, `CCC1C(C)=NN=C(c2ccc(OC)c(OC)c2)c2cc(OC)c(O)cc21` (configuration not stated): 210 to 212 °C; `CC(C)S(=O)(=O)Nc1cccc(C=C2c3ccccc3CCc3ccccc32)c1`: 188 °C.

Regarding `CCCN1C(=O)C(C)(C)N=C(c2ccccc2F)c2cc([N+](=O)[O-])cc(Cl)c21`, the melting point lay within 178 to 179 °C. With `Cc1cc(C(=O)Nc2ccc(C(=O)O)cc2)on1` the figure was over 300 °C; with `COc1cc(COc2cccc3c2CN(C2CCC(=O)NC2=O)C3=O)ccc1OCCN1CCCC1` (configuration not stated), 160 to 162 °C.

`COc1ccc(C(CSc2ccccc2N)C(=O)O)cc1OC` (configuration not stated) showed a melting point of 162 °C.

For the compound `Cc1ccccc1-c1nc(-c2cccc(Cl)c2)n(C)n1`, the melting point lay in the range of 86 to 88 °C.

On to `COC(=O)c1ccc2c(c1)S(=O)(=O)c1ccccc1N=C2N1CCOCC1`, for which the melting point lay in the range of 164 to 166 °C. With `Cc1ccc(C)c(-c2c3ccccc3nc3ccc(NC(=O)c4ccccc4)cc23)c1`, the melting point fell in the range of 253 to 255 °C. Next, `Cc1c(-c2ccccc2)oc2c(C(=O)NCCCN3CCC(n4c(=O)[nH]c5ccccc54)CC3)cccc2c1=O`: 238 to 241 °C; `COc1ccc(NCCn2nc(O)c3[nH]c4cc(Cl)ccc4c(=O)c3c2=O)cc1`: 239 to 241 °C.

As to `O=c1ccc(-c2cc(Cl)c(O)c(Cl)c2)n[nH]1`, the melting point is over 300 °C. `CCN1CC(N(CCN2CCCC2)S(=O)(=O)c2ccc(Nc3nccc(Nc4ccc(F)c(C)c4)n3)cc2)C1` came in with a melting point of 195 °C.

On to `C[C@H]1[C@H](N)CN1c1c(F)c(N)c2c(=O)c(C(=O)O)cn(C3CC3)c2c1F` (relative stereo), for which the melting point was 206 to 210 °C. Next, `NS(=O)(=O)c1cccc(-c2cc(-c3nc(-c4ccc(F)cc4)cc(C(F)(F)F)n3)ccn2)c1`: 240 °C; `O=C1C=CC(=O)N1CO`: 96.5 to 97 °C. With `O=C(Nc1ccc(CN2CCCCC2)cc1)C(Br)C(Br)c1ccc(-c2ccc(Cl)cc2)cc1` (configuration not stated) the figure was 145 to 150 °C; with `CCOCCn1c(COc2cccc(CO)c2)nc2ccccc21`, 105 to 107 °C; with `N#Cc1cc(-c2cccc(Cl)c2)ccc1N`, 118 to 119 °C. With `O=C(O)CCCCOc1cccc2occc12` the figure was 108 °C; with `COC1=CC(=O)C(O)=C(CCCCCCCC(O)C(O)CCCCCCCC2=C(O)C(=O)C=C(OC)C2=O)C1=O` (configuration not stated), 132 to 134 °C; with `FC(F)(F)C(/C=C/c1ccc(CNc2ccccn2)c(Cl)c1)c1cc(Cl)c(Cl)c(Cl)c1` (configuration not stated), 140 to 142 °C. Regarding `O=c1[nH]c2cc(F)c(NCC3CCCCO3)cc2o1` (configuration not stated), the melting point was in the range of 185 to 186 °C. With `CCOC(=O)Cn1ncc(-c2ccccc2)c1-c1ccc(N(C)C)cc1` the figure was 99 to 101 °C; with `Brc1ccc(Cc2nccc(-c3ccc(Br)cc3)n2)cc1`, 93 to 94 °C. Next, `CCOC(=O)OC(C)OC(=O)c1cc(-c2ccc(F)cc2F)ccc1O` (configuration not stated): 76 to 78 °C; `CN(C(CCn1c(=O)cc(Cl)[nH]c1=O)C(=O)NO)S(=O)(=O)c1ccc(Oc2ccc(Cl)cc2)cc1` (configuration not stated): 171 to 173 °C. Next, `CCCCc1nc(Cl)c(CC(=O)OCC)c(Cc2ccc(C(=O)O)cc2)n1`: 130 °C; `CCOC(=O)C(=O)c1oc(-n2ccnc2C)nc1-c1ccc(Cl)cc1`: 126 to 127 °C; `O=CNC1CCN(c2ncc3ncnc(Nc4ccc(F)c(Cl)c4)c3n2)CC1`: 201 to 203 °C. On to `CC(=O)NC[C@H]1CN(c2ccc(C3=CCN(c4nnc(C)s4)CC3)c(F)c2)C(=O)O1`, for which the melting point was 193 to 195 °C. With `COc1cc(NC(=O)OC(C)(C)C)c(N)cc1C#Cc1ccccc1` the figure was 158 °C; with `CC(=O)N1CCN(Cc2sccc2S(=O)(=O)N(C)c2cccc3cc(-c4nccs4)[nH]c23)CC1`, 242 °C.

`C[C@H]([C@](O)(Cn1cncn1)c1ccc(F)cc1F)S(=O)(=O)CC(N)=O`: the melting point was 184 to 185 °C.

In turn, `O=C(NCCN1CCCCC1)N1CCN(c2ccccc2)CC1` gave a melting point of 64 to 67 °C.

Compound `CC12CC3OC3CC1CCC1C2CCC2(C)C(O)C(N3CCCCC3)CC12` (configuration not stated) gave a melting point of 153 to 165 °C. The compound `COC(=O)c1ccc(C(=O)CC(=O)c2ccccc2)cc1` returned a melting point of 107 to 108 °C.

As to `ClCc1c2ccccc2c(CCl)c2ccccc12`, the melting point was in the range of 238 to 243 °C. The compound `COC(=O)C1Cc2c([nH]c3ccccc23)CN1C(=S)Sc1cccs1` (configuration not stated) gave a melting point of 150 to 152 °C. For `COc1cc(OCC(=O)N(C)C)c(/C=C/C(=O)c2ccc(C(=O)O)cc2)cc1-c1cccs1`, the melting point lay in the range of 197 to 198 °C. Next, `COc1ccc(S(=O)(=O)Nc2cccnc2Nc2ccccc2)cc1`: 172 to 173 °C. Next, `COc1cc(OC)nc(C2(O)OC(=O)c3c(Cl)ccc(Cl)c32)n1` (configuration not stated): 161 to 175 °C. In turn, `O=c1ccnc(NCCN(Cc2ccccc2)c2ccccn2)[nH]1` had a melting point of 187 to 190 °C. The compound `CCCNC(=O)Nc1c(C(=O)OCC)cnn1-c1ccccc1` displayed a melting point of 117 to 118 °C. Next, `COc1cc(OCc2ccccn2)ccc1/C=C/c1cc(/C=C/c2c[nH]c3ccccc23)n[nH]1`: 112 to 116 °C; `CCOC(=O)CCC(=O)Nc1ccc(-c2c[nH]c(=O)cn2)cc1`: 250 °C; `O=C1c2cc(O)ccc2CC1Cc1ccccc1` (configuration not stated): 140 to 143 °C. With `CCCc1nc(CO)c(C)[nH]1` the figure was 134 to 136 °C; with `CC(C)(C)OC(=O)N1CCN(c2ccc(Oc3cc(Cl)ccc3N)cc2)CC1`, 95 to 96 °C; with `COc1cc2c(cc1OC)-c1cc3cc(O)ccc3n1C2=O`, over 260 °C. With `Cc1cc(Oc2cccc(C(F)(F)F)c2)c(C)cc1N=CNC#N` the figure was 138 to 140 °C; with `Cc1c(CC(C)(C)C(=O)O)n(Cc2ccc(Cl)cc2)c2ccc(OCc3ccc4ccccc4n3)cc12`, 215 to 217 °C; with `CCCCCCC#Cc1csc(/C=C/C(=O)O)c1`, 81 °C. Take `Nc1ccc(F)c(SC(F)(F)F)c1`: the melting point was 120 °C. Next, `O=C(O)CC(NC(=O)OCc1ccccc1)C(=O)CON1C(=O)Cc2ccccc21` (configuration not stated): 58 to 70 °C; `Cc1cccc(-c2[nH]c(CC(C)C)nc2-c2cccc(-c3ccc(C(=O)NC4CCOCC4)cc3)c2)n1`: 126 to 129 °C; `CC(=O)OCCN(C)CC#CC1=Cc2ccccc2Sc2ccc(Cl)cc21`: 48 to 51 °C. Next, `Cc1cc(SCCC#Cc2ccc(C(F)(F)F)cc2)ccc1OCC(=O)O`: 129 to 130 °C; `CCOC(=O)CN1C(=O)SC(Cc2ccc(N3CCC(NCC(O)c4ccc(O)c(NS(C)(=O)=O)c4)CC3)cc2)C1=O` (configuration not stated): 153 to 155 °C. Next, `NC(=O)Nc1ccc(O)cc1`: 96.3 to 98.3 °C; `CCOC(=O)c1cc(OC2CCCCC2=O)[nH]n1` (configuration not stated): 122 to 124 °C; `COc1ccc2c(c1)CCC([C@@H]1CC[C@H](O)[C@@]1(C)CC(=O)O)C2` (some centres not stated): 142 °C. Compound `COC(=O)C(C)(C)c1ccc2cc(OC)ccc2c1` yielded a melting point of 97 to 98 °C. Regarding `CCOC(=O)CCC(=O)c1cnc2c(OC)cccc2c1Nc1ccccc1C`, the melting point lay in the range of 210 to 211 °C.

Consider `Cc1cccc(-c2n[nH]cc2-c2ccc(F)c(-c3cn(CCN(C)C)cn3)c2)n1`, for which the melting point lay within 130 to 131 °C. Next, `O=C1C2=C(OCCO2)C(=O)c2cc(Cl)ccc21`: 209 to 210 °C. Next, `Cc1ccc(NC(=O)c2cccc([N+](=O)[O-])c2)cc1`: 160 to 162 °C; `COCOc1cccc(NC(=O)OC(C)(C)C)c1I`: 82 to 84 °C. Next, `CC1CC2C(=CCC3(C)C2CCC3(O)C(=O)CO)C2(C)C=CC(=O)C=C12` (configuration not stated): 204 to 206 °C. In turn, `CS(=O)(=O)c1ccc(-c2cnn(CC(F)(F)F)c(=O)c2SC2CCCC2)cc1` came in with a melting point of 149 to 151 °C.

The compound `Cc1nn(-c2ccccn2)cc1COc1ccc(C=O)cc1` yielded a melting point of 84 to 85 °C. With `CCC(C)OS(=O)(=O)c1ccc(C(=O)c2cc(Cl)ccc2Cl)cc1` (configuration not stated) the figure was 73 to 74 °C; with `O=C(CCCc1ccccc1)N[C@H](Cc1ccc(F)cc1)[C@@H](O)c1ccc(F)cc1` (racemic), 147 to 148 °C. With `COc1cc(OCC(=O)O)cc2c1C(=O)CC1(CCCCC1)S2` the figure was 195 to 196 °C; with `CCc1nc2c(cnn2CC)c(NC2CCOCC2)c1CNC(=O)c1cccc(C(=O)NCc2ccc(Cl)c(-c3cccc(CN4CC5CC4CN5)c3)c2)c1` (configuration not stated), 145 to 149 °C.
